Experimental data: PMC7367873, “Dissecting the sequence determinants for dephosphorylation by the catalytic subunits of phosphatases PP1 and PP2A” (Nature Communications, 2020)
Entries after “also recorded” stand apart in the source; their conditions may differ.

Tested on: GAB2/GFP-14-3-3β interaction
Test: GAB2/14-3-3 binding assay (GFP-14-3-3β pull-down, Western blot)
Parameters: species or system human
Experimental: pEGFP(C1)-14-3-3β or pCMV-GAB2-3FLAG was transfected into HeLa Kyoto cells as described in the respective section for 24 h. Cells were incubated with or w/o 20 nM Calyculin A (# 9902 S, Cell Signaling Technology) in complete growth media for 12 min. Cells were washed twice on ice with cold PBS and after addition of 500 µL lysis buffer (100 mM NaCl, 10 mM Tris, 0.1% IGEPAL, 1 mM EDTA, 1 mM EGTA, 20 nM Calyculin A, 1x cOmplete Mini protease inhibitor cocktail (Sigma), 2 mM DTT, 2 mM MnCl2) cells were scraped from plates, lysed by 10 pushes through an injection needle and the insoluble fraction was pelleted by centrifugation (10 min, 10^4 rcf, 4 °C). Supernatants were then subjected to incubation with 1 µM recombinant PP1c (if not indicated otherwise) or buffer for 1 h at 30 °C. […] Next, we subjected samples to immunoprecipitation/pull-down using 25 µL of α-FLAG M2 magnetic bead slurry (Sigma-Aldrich) or an equal volume of bead-coupled α-GFP nanobodies (EMBL PEPcore Core Facility) for 2 h at 4 °C. Beads were then washed three times with lysis buffer and samples were eluted in 1x SDS sample buffer by heating to 95 °C for 10 min and further analyzed by SDS PAGE for 14-3-3/GAB2 association and phosphorylation status of GAB2-pS210.
For SDS-PAGE, samples were loaded on NuPAGE™ 4-12% Bis-Tris protein gels (Invitrogen) and gel electrophoresis was performed at 180 V constant in 1x MOPS buffer. Samples were transferred onto CN blotting membranes (0.45 µm, neoLab) by wet blotting. Membranes were stained using Ponceau, followed by blocking with Tris-buffered saline with 0.1% Tween (TBS-T) containing 5% (w/v) non-fat milk for 45 min at room temperature. After three washes (5 min), membranes were then incubated with the following antibodies in TBS-T with 5% BSA overnight at 4 °C: α-GFP (1:2000, Abcam, ab6556), α-GAB2 (1:1000, CST, #3239), α-GAB2-pS210 (1:250, Symansis, customized purification), α-FLAG (1:1000, M2, Sigma-Aldrich, F3165), α-pan14-3-3 (1:500, SCBT, sc-629), α-PP1 (1:1000, SCBT, sc-7482), α-PP2A (1:1000, SCBT, sc-130237) or α-6His (1:2000, Abcam, ab9108). Afterwards blots were washed three times in TBS-T and incubated with goat anti-mouse IgG-peroxidase conjugate (1:2500, Sigma, A0168), donkey anti-rabbit IgG-horseradish peroxidase (HRP) conjugate (1:2500, GE Healthcare, GENA934), or rabbit anti-sheep IgG (H + L) HRP conjugate (1:2500, Thermo Fisher Scientific, 61-8620) for 2 h at room temperature. […] All blots were quantified using raw images and ImageLab software (v6.0.1, BioRad): Files were imported and analyzed without further modifications. […] The quantification was exported from the analysis table and measurements of background adjusted band volumes where used for further normalization steps and graphical depiction. […]

**Q.** With “PP1c: recombinant catalytic subunit of PP1” as the substance, how does the “interaction of GAB2 with overexpressed GFP-14-3-3β” value (Calyculin A 20 nM in cells, recombinant PP1c in lysate 1 h at 30 °C, PP1c-concentration-dependent, three independent experiments) read?
**A.** decreased upon addition of recombinant PP1c in a PP1c–concentration-dependent manner; also recorded: less associated with endogenous GAB2

**Q.** What about the “interaction of GAB2 with GFP-14-3-3β, PP1c pre-inhibited” value (recombinant PP1c mixed with equimolar Calyculin A for 5–10 min before addition to lysate) of the same substance?
**A.** but not if recombinant PP1c was inhibited prior to treatment
